In assay [1] the target is T1, Glutamate NMDA receptor; GRIN1/GRIN2B (Homo sapiens, UniProt Q05586+Q13224). Kind of assay: Inhibition of recombinant GluN1/GluN2B receptor (unknown origin) expressed in HEK293 cells assessed as inhibition of glutamate-evoked current by whole-cell voltage-clamp method. Format: cell-based.
Assay [2] addresses T1, Glutamate NMDA receptor; GRIN1/GRIN2B. Kind of assay: Inhibition of recombinant GluN1/GluN2B receptor (unknown origin) expressed in HEK293 cells assessed as inhibition of glutamate-evoked current at 1 to 10 uM by whole-cell voltage-clamp method. Format: cell-based.
Assay [3] can be described thus: Inhibition of GABA receptor in rat hippocampal neurons assessed as inhibition of GABA-evoked current by whole-cell voltage-clamp method. Type of assay: tissue-based. The following applies: Hippocampus.
Assay [4] deals with Ionotropic glutamate receptor NMDA 1/2D (Homo sapiens, UniProt O15399+Q05586). Kind of assay: Inhibition of recombinant GluN1/GluN2D receptor (unknown origin) expressed in HEK293 cells assessed as inhibition of glutamate-evoked current by whole-cell voltage-clamp method. Format: cell-based.
Sequence of Ionotropic glutamate receptor NMDA 1/2D (O15399 whole entry, other chains not shown): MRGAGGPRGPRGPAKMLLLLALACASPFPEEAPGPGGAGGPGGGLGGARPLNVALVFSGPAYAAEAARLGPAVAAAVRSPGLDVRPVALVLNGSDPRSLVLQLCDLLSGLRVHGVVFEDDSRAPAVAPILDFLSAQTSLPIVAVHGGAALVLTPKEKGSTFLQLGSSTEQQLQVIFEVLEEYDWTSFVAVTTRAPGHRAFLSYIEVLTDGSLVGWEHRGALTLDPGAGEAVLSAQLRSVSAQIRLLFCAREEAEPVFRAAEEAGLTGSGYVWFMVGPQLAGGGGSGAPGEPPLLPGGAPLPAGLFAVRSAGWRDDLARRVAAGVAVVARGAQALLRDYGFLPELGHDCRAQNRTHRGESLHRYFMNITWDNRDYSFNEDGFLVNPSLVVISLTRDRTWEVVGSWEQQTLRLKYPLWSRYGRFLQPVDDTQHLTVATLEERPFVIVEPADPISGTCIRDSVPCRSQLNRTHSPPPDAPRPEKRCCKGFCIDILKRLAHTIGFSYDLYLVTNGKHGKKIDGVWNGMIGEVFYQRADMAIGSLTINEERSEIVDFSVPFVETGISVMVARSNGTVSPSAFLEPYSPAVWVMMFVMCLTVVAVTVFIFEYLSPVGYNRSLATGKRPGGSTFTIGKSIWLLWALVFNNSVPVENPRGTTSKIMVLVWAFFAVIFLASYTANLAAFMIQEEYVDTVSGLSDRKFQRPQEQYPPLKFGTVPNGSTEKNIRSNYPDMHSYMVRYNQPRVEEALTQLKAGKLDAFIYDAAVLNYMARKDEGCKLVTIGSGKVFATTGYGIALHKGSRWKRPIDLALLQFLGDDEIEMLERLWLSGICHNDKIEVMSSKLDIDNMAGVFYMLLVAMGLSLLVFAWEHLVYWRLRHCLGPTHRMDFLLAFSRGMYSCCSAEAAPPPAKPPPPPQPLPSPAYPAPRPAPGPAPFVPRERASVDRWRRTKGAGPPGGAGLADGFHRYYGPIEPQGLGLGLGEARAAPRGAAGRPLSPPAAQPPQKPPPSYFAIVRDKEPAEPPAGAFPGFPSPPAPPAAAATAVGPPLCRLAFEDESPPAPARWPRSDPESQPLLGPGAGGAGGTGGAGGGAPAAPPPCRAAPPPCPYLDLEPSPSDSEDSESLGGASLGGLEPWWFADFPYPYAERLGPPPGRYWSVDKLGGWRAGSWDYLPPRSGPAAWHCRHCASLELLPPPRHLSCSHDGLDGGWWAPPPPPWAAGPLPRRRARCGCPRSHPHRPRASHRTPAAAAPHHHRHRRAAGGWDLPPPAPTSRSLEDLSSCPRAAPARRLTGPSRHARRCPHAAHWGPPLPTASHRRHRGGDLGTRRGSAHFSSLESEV
A short description of assay [5]: Inhibition of AMPA receptor in rat hippocampal neurons assessed as inhibition of AMPA-evoked current by whole-cell voltage-clamp method in presence of receptor desensitization inhibitor cyclothiazide. Format: tissue-based. The settings on record: Hippocampus.
The target of assay [6] is Glutamate NMDA receptor. The assay can be described thus: Inhibition of NMDA receptor in rat hippocampal neurons assessed as inhibition of glutamate-evoked current by whole-cell voltage-clamp method. Format: tissue-based, Hippocampus.
Assay [7] deals with Ionotropic glutamate receptor NMDA 1/2C (Homo sapiens, UniProt Q05586+Q14957). Kind of assay: Inhibition of recombinant GluN1/GluN2C receptor (unknown origin) expressed in HEK293 cells assessed as inhibition of glutamate-evoked current by whole-cell voltage-clamp method. Type of assay: cell-based.
Sequence of Ionotropic glutamate receptor NMDA 1/2C (Q14957 whole entry, other chains not shown): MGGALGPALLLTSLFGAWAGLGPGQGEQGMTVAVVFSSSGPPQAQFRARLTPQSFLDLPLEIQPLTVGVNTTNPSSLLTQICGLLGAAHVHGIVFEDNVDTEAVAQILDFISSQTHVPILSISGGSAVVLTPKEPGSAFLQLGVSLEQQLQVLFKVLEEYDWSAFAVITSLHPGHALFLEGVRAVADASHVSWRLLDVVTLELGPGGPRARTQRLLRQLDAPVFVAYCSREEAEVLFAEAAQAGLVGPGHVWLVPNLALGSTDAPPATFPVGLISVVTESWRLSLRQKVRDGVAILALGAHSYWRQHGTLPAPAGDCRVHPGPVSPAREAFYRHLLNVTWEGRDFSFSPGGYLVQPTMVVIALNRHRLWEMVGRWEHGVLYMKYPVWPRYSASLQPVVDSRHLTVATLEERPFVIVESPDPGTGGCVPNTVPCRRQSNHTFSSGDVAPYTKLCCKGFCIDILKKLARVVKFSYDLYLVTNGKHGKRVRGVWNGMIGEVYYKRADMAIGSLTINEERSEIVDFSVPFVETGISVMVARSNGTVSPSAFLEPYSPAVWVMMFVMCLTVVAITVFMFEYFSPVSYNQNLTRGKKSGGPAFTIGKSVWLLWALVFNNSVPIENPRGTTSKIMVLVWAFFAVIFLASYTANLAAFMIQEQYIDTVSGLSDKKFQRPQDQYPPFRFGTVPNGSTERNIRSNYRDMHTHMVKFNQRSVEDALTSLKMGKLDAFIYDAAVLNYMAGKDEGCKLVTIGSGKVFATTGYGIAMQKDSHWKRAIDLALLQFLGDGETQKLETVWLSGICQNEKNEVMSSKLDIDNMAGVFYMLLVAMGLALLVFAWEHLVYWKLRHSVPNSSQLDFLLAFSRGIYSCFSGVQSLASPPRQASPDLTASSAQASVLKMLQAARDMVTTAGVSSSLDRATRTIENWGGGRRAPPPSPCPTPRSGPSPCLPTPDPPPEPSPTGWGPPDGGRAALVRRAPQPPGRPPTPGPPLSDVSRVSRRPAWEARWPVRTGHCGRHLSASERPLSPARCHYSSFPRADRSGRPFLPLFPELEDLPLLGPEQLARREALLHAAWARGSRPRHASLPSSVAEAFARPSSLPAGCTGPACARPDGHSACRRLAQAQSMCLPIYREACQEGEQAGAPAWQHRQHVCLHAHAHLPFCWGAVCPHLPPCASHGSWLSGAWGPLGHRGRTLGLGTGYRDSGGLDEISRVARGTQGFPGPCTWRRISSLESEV
The target of assay [8] is Glutamate NMDA receptor; GRIN1/GRIN2A (Homo sapiens, UniProt Q05586+Q12879). Kind of assay: Inhibition of recombinant GluN1/GluN2A receptor (unknown origin) expressed in HEK293 cells assessed as inhibition of glutamate-evoked current by whole-cell voltage-clamp method. Format: cell-based.
Sequence of Glutamate NMDA receptor; GRIN1/GRIN2A (Q12879 whole entry, other chains not shown): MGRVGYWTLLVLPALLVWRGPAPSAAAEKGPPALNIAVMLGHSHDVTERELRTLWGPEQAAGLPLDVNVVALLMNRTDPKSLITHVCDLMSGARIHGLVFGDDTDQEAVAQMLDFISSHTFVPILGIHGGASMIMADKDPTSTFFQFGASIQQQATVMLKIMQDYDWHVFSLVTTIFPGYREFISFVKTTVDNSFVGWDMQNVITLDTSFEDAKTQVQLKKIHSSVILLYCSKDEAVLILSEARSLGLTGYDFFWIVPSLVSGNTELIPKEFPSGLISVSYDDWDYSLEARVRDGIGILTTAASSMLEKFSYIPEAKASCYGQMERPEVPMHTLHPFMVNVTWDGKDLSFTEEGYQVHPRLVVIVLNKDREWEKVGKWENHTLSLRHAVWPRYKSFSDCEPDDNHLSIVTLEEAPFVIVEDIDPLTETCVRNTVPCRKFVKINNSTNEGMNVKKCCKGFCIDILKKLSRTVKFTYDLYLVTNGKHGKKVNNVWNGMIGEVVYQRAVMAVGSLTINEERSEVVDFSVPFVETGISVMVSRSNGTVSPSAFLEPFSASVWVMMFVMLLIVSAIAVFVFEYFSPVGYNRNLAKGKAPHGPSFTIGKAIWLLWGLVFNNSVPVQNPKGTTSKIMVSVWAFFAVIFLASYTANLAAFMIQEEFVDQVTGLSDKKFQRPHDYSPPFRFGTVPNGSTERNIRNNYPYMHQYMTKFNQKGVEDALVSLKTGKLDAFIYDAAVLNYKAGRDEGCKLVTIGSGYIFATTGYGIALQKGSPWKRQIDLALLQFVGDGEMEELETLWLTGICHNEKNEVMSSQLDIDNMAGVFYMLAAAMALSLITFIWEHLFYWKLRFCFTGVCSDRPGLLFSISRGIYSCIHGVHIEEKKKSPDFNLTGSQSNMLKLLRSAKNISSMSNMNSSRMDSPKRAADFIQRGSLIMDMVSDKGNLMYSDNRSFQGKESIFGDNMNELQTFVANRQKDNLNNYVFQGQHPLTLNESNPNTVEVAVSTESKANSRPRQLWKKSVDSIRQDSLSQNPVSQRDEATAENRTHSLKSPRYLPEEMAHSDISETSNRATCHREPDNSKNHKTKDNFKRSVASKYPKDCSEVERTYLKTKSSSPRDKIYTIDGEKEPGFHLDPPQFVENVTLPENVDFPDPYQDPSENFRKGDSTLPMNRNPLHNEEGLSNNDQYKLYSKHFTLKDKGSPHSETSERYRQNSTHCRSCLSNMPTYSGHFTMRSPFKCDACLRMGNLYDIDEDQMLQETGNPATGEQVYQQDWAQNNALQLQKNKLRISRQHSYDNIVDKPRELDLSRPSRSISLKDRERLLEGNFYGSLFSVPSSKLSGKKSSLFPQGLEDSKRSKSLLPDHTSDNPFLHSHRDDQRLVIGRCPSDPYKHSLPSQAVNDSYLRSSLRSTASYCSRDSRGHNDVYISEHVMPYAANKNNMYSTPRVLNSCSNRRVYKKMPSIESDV

These results are taken from ChEMBL document CHEMBL3593227, “A New Class of Potent N-Methyl-D-Aspartate Receptor Inhibitors: Sulfated Neuroactive Steroids with Lipophilic D-Ring Modifications” (J Med Chem, 2015).

Active and inactive are the calls of the source. No cut-off for these calls is given here.

By IC50 is commonly meant the concentration that gives 50% inhibition.

As for `C[C@H]1CC[C@@H]2[C@@H]1CC[C@H]1[C@H]2CC[C@@H]2C[C@H](OS(=O)(=O)O)CC[C@@]21C.c1ccncc1`, in assay [1], the IC50 is 0.7 µM.
Take `CC(=O)[C@H]1CC[C@H]2[C@@H]3CC[C@@H]4C[C@H](OS(=O)(=O)O)CC[C@]4(C)[C@H]3CC[C@]12C`: in assay [1], the IC50 stood at 23.4 µM and the inhibition entry was “Dose-dependent effect”.
`C[C@]12CC[C@@H](OS(=O)(=O)O)C[C@H]1CC[C@@H]1[C@@H]2CC[C@]2(C)[C@@H](I)CC[C@@H]12.c1ccncc1`: the 50% inhibitory concentration (IC50) in assay [1] worked out at 0.6 µM.
With `C/C=C1/CC[C@H]2[C@@H]3CC[C@@H]4C[C@H](OS(=O)(=O)O)CC[C@]4(C)[C@H]3CC[C@]12C.c1ccncc1`, the IC50 in assay [1] is 0.8 µM.
With `C[C@]12CC[C@@H](OS(=O)(=O)O)C[C@H]1CC[C@@H]1[C@@H]2CC[C@]2(C)C=CC[C@@H]12.c1ccncc1`, in assay [2], the inhibition entry was “inactive”.
In the case of `CC[C@H]1CC[C@H]2[C@@H]3CC[C@@H]4C[C@H](OS(=O)(=O)O)CC[C@]4(C)[C@H]3CC[C@]12C.c1ccncc1`, the IC50 in assay [1] was found to be 0.4 µM.
Still for that read-out and setting: for `C[C@@]12CCCC[C@H]1[C@@H]1CC[C@@H]3C[C@H](OS(=O)(=O)O)CC[C@]3(C)[C@H]1CC2.c1ccncc1` the value was 1.1 µM; for `CC[C@@H](C)[C@H]1CC[C@H]2[C@@H]3CC[C@@H]4C[C@H](OS(=O)(=O)O)CC[C@]4(C)[C@H]3CC[C@]12C.c1ccncc1`, 0.09 µM.
Consider `C[C@H]1CC[C@H]2[C@@H]3CC[C@@H]4C[C@H](OS(=O)(=O)O)CC[C@]4(C)[C@H]3CC[C@]12C.c1ccncc1`, for which the IC50 in assay [3] is 1.2 µM; in assay [4], 0.5 µM; in assay [5] it was 9.5 µM; in assay [1] it was 0.6 µM; in assay [6], 0.9 µM; in assay [7], 0.4 µM. For the same molecule, the IC50 in assay [8] worked out at 0.6 µM.
As to `C[C@@]12CCC[C@H]1[C@@H]1CC[C@@H]3C[C@H](OS(=O)(=O)O)CC[C@@H]3[C@H]1CC2.c1ccncc1`, in assay [1], the IC50 is 5.4 µM.
Consider `C[C@@H]1CC[C@@H]2[C@H]1CC[C@H]1[C@H]2CC[C@@H]2C[C@H](OS(=O)(=O)O)CC[C@@]21C.c1ccncc1`, for which, in assay [1], the IC50 is 0.9 µM.
On the same count and under the same terms, for `C[C@]12CC[C@@H](OS(=O)(=O)O)C[C@H]1CC[C@@H]1[C@@H]2CC[C@@]2(C)[C@H]1CCC2(F)F.c1ccncc1` the value was 7 µM.
With `C=C1C[C@H]2[C@@H]3CC[C@@H]4C[C@H](OS(=O)(=O)O)CC[C@]4(C)[C@H]3CC[C@]2(C)C1.c1ccncc1`, the IC50 in assay [1] was 2.2 µM.
On the same count and under the same terms, then `CC(C)[C@H]1CC[C@H]2[C@@H]3CC[C@@H]4C[C@H](OS(=O)(=O)O)CC[C@]4(C)[C@H]3CC[C@]12C.c1ccncc1`, with 0.17 µM; and `C[C@@]12CCC[C@H]1[C@@H]1CC[C@@H]3C[C@H](OS(=O)(=O)O)CC[C@]3(C)[C@H]1CC2.c1ccncc1`, with 1.2 µM; and `C=C1CC[C@H]2[C@@H]3CC[C@@H]4C[C@H](OS(=O)(=O)O)CC[C@]4(C)[C@H]3CC[C@]12C.c1ccncc1`, with 1.6 µM.
With `C=C(C)[C@H]1CC[C@H]2[C@@H]3CC[C@@H]4C[C@H](OS(=O)(=O)O)CC[C@]4(C)[C@H]3CC[C@]12C.c1ccncc1`, the IC50 in assay [1] is 0.5 µM.
